Assay results as given in ChEMBL document CHEMBL1158330, “Two new puriniums and three new pyrimidines from Heterostemma brownii” (J Nat Prod, 1997).
pIC50: −log10 of the molar value.

What was measured:
Huh-7 [1] = assay: Cytotoxicity against human HuH7 cells at 100 nM after 72 hrs by MTT assay relative to control; assay type: functional; conditions: Huh-7, 72 h
Huh-7 [2] = assay: Cytotoxicity against human HuH7 cells after 72 hrs by MTT assay; assay type: functional, cell-based; conditions: Huh-7, 72 h
MOLT-4 [3] = assay: Cytotoxicity against human MOLT4 cells at 1000 uM after 72 hrs by MTT assay relative to control; assay type: functional; conditions: MOLT-4, 72 h
MOLT-4 [4] = assay: Cytotoxicity against human MOLT4 cells at 100 uM after 72 hrs by MTT assay relative to control; assay type: functional; conditions: MOLT-4, 72 h
MOLT-4 [5] = assay: Cytotoxicity against human MOLT4 cells at 10 uM after 72 hrs by MTT assay relative to control; assay type: functional; conditions: MOLT-4, 72 h
MOLT-4 [6] = assay: Cytotoxicity against human MOLT4 cells at 1 uM after 72 hrs by MTT assay relative to control; assay type: functional; conditions: MOLT-4, 72 h
MOLT-4 [7] = assay: Cytotoxicity against human MOLT4 cells at 100 nM after 72 hrs by MTT assay relative to control; assay type: functional; conditions: MOLT-4, 72 h
MOLT-4 [8] = assay: Cytotoxicity against human MOLT4 cells after 72 hrs by MTT assay; assay type: functional, cell-based; conditions: MOLT-4, 72 h
HL-60 [9] = assay: Cytotoxicity against human HL60 cells at 1000 uM after 72 hrs by MTT assay relative to control; assay type: functional; conditions: HL-60, 72 h
HL-60 [10] = assay: Cytotoxicity against human HL60 cells at 100 uM after 72 hrs by MTT assay relative to control; assay type: functional; conditions: HL-60, 72 h
HL-60 [11] = assay: Cytotoxicity against human HL60 cells at 10 uM after 72 hrs by MTT assay relative to control; assay type: functional; conditions: HL-60, 72 h
HL-60 [12] = assay: Cytotoxicity against human HL60 cells at 1 uM after 72 hrs by MTT assay relative to control; assay type: functional; conditions: HL-60, 72 h
HL-60 [13] = assay: Cytotoxicity against human HL60 cells at 100 nM after 72 hrs by MTT assay relative to control; assay type: functional; conditions: HL-60, 72 h
HL-60 [14] = assay: Cytotoxicity against human HL60 cells after 72 hrs by MTT assay; assay type: functional, cell-based; conditions: HL-60, 72 h
K562 [15] = assay: Cytotoxicity against human K562 cells at 1000 uM after 72 hrs by MTT assay relative to control; assay type: functional; conditions: K562, 72 h
K562 [16] = assay: Cytotoxicity against human K562 cells at 100 uM after 72 hrs by MTT assay relative to control; assay type: functional; conditions: K562, 72 h
K562 [17] = assay: Cytotoxicity against human K562 cells at 10 uM after 72 hrs by MTT assay relative to control; assay type: functional; conditions: K562, 72 h
K562 [18] = assay: Cytotoxicity against human K562 cells at 1 uM after 72 hrs by MTT assay relative to control; assay type: functional; conditions: K562, 72 h
K562 [19] = assay: Cytotoxicity against human K562 cells at 100 nM after 72 hrs by MTT assay relative to control; assay type: functional; conditions: K562, 72 h
K562 [20] = assay: Cytotoxicity against human K562 cells after 72 hrs by MTT assay; assay type: functional, cell-based; conditions: K562, 72 h
Huh-7 [21] = assay: Cytotoxicity against human HuH7 cells at 100 uM after 72 hrs by MTT assay relative to control; assay type: functional; conditions: Huh-7, 72 h
[22] = Cytotoxicity against human HCE6 cells at 1000 uM after 72 hrs by MTT assay relative to control; assay type: functional; conditions: HCE6, 72 h
[23] = Cytotoxicity against human HCE6 cells at 100 uM after 72 hrs by MTT assay relative to control; assay type: functional; conditions: HCE6, 72 h
[24] = Cytotoxicity against human HCE6 cells at 10 uM after 72 hrs by MTT assay relative to control; assay type: functional; conditions: HCE6, 72 h
[25] = Cytotoxicity against human HCE6 cells at 1 uM after 72 hrs by MTT assay relative to control; assay type: functional; conditions: HCE6, 72 h
[26] = Cytotoxicity against human HCE6 cells at 100 nM after 72 hrs by MTT assay; assay type: functional; conditions: HCE6, 72 h
[27] = Cytotoxicity against human HCE6 cells after 72 hrs by MTT assay; assay type: functional, cell-based; conditions: HCE6, 72 h
Huh-7 [28] = assay: Cytotoxicity against human HuH7 cells at 1000 uM after 72 hrs by MTT assay relative to control; assay type: functional; conditions: Huh-7, 72 h
Huh-7 [29] = assay: Cytotoxicity against human HuH7 cells at 10 uM after 72 hrs by MTT assay relative to control; assay type: functional; conditions: Huh-7, 72 h
Huh-7 [30] = assay: Cytotoxicity against human HuH7 cells at 1 uM after 72 hrs by MTT assay relative to control; assay type: functional; conditions: Huh-7, 72 h

Compound `COc1nc(N(C)C)nc2c1[n+](C)cn2C` [HETEROMINE A] has a viability at 0.1 µM (Huh-7 [1]) of 97.3%, a pIC50 (Huh-7 [2]) of 4.14 and a viability at 1000 µM (MOLT-4 [3]) of 5.6%. It also gave a viability at 100 µM (MOLT-4 [4]) of 24.8%, a viability at 10 µM (MOLT-4 [5]) of 54.8% and a viability at 1 µM (MOLT-4 [6]) of 90.7%. The viability at 0.1 µM (MOLT-4 [7]) was 94.7%, the pIC50 (MOLT-4 [8]) was 4.84 and the viability at 1000 µM (HL-60 [9]) was 5.7%. The viability at 100 µM (HL-60 [10]) was 8.2%, the viability at 10 µM (HL-60 [11]) was 42.7% and the viability at 1 µM (HL-60 [12]) was 99.3%. It also gave a viability at 0.1 µM (HL-60 [13]) of 94.5%, a pIC50 (HL-60 [14]) of 5.13 and a viability at 1000 µM (K562 [15]) of 5.9%. For the same compound, the viability at 100 µM (K562 [16]) was 33.5%, the viability at 10 µM (K562 [17]) was 49.7% and the viability at 1 µM (K562 [18]) was 107%. For the same compound, the viability at 0.1 µM (K562 [19]) was 94.3%, the pIC50 (K562 [20]) was 5.01 and the viability at 100 µM (Huh-7 [21]) was 43.1%. For the same compound, the viability at 1000 µM [22] was 1.7%, the viability at 100 µM [23] was 8.2% and the viability at 10 µM [24] was 26.2%. For the same compound, the viability at 1 µM [25] was 87.4%, the viability at 0.1 µM [26] was 92.4% and the pIC50 [27] was 5.39. For the same compound, the viability at 1000 µM (Huh-7 [28]) was 11.1%, the viability at 10 µM (Huh-7 [29]) was 91.1% and the viability at 1 µM (Huh-7 [30]) was 102%.
In the case of `CNc1nc(OC)c2c(n1)n(C)c[n+]2C` [HETEROMINE B], the viability at 0.1 µM (Huh-7 [1]) was 104%, the pIC50 (Huh-7 [2]) was 3.33 and the viability at 1000 µM (MOLT-4 [3]) was 17.4%. The viability at 100 µM (MOLT-4 [4]) was 35.9%, the viability at 10 µM (MOLT-4 [5]) was 86% and the viability at 1 µM (MOLT-4 [6]) was 91%. The viability at 0.1 µM (MOLT-4 [7]) was 107%, the pIC50 (MOLT-4 [8]) was 4.28 and the viability at 1000 µM (HL-60 [9]) was 14.9%. For the same compound, the viability at 100 µM (HL-60 [10]) was 20.3%, the viability at 10 µM (HL-60 [11]) was 72.6% and the viability at 1 µM (HL-60 [12]) was 99.1%. For the same compound, the viability at 0.1 µM (HL-60 [13]) was 114%, the pIC50 (HL-60 [14]) was 4.57 and the viability at 1000 µM (K562 [15]) was 27.6%. It also gave a viability at 100 µM (K562 [16]) of 40.4%, a viability at 10 µM (K562 [17]) of 88.2% and a viability at 1 µM (K562 [18]) of 95.5%. For the same compound, the viability at 0.1 µM (K562 [19]) was 96.8%, the pIC50 (K562 [20]) was 4.20 and the viability at 100 µM (Huh-7 [21]) was 92.5%. It also gave a viability at 1000 µM [22] of 10.6%, a viability at 100 µM [23] of 22.1% and a viability at 10 µM [24] of 85%. It also gave a viability at 1 µM [25] of 82.2%, a viability at 0.1 µM [26] of 82.2% and a pIC50 [27] of 4.44. For the same compound, the viability at 1000 µM (Huh-7 [28]) was 28.8%, the viability at 10 µM (Huh-7 [29]) was 94.3% and the viability at 1 µM (Huh-7 [30]) was 103%.
